Legend:
[1] = system: EGFR-exon 19 deletion+T790M+C797S; settings: preclinical models; cited from earlier work
[2] = system: HCC827 (EGFRDelE746-A750); test: in vivo xenograft study in mice, NSCLC model HCC827; settings: once daily or twice daily
Excerpt: (§1) Compound A is a small molecule epidermal growth factor receptor (EGFR) mutant-specific inhibitor. […] Compound A is a novel, 3rd generation EGFR mutant-specific TKI, which is currently being investigated in first and second line setting for treatment of patients with EGFR-mutated NSCLC.

mutant forms of EGFR = test: enzymatic inhibitory activity, mutant forms of EGFR versus wild type EGFR; assay type: biochemical; settings: in vitro
Excerpt: as §1

EGFR mutant cell lines = test: cellular proliferation assays comparing EGFR mutant with EGFR wild type cell lines; assay type: cell-based; settings: EGFR mutant versus EGFR wild type cell lines
Excerpt: as §1

H1975 (EGFRL858R/T790M) = test: in vivo xenograft study in mice, NSCLC model H1975; settings: once daily or twice daily
Excerpt: as §1

[3] = mouse, in vivo
Excerpt: as §1

[4] = system: T790M-containing cell lines; settings: several preclinical models; cited from earlier work

C=CC(=O)Nc1cc(Nc2nccc(-c3cn(C)c4ccccc34)n2)c(OC)cc1N(C)CCN(C)C [AZD9291, osimertinib]
sensitivity of the mutant protein to the drug [1]: resistant

C=CC(=O)Nc1cccc(Oc2nc(Nc3ccc(N4CCN(C)CC4)cc3)nc3ccsc23)c1 [Compound A, N-(3-{2-[4-(4-methyl-piperazin-1-yl)-phenylamino]-thieno[3,2-d]pyrimidin-4-yloxy}-phenyl)-acrylamide]
anti-tumor activity as a single agent [2]: Tumor regressions were observed in all models
enzymatic inhibitory activity towards mutant forms of EGFR compared to wild type EGFR (mutant forms of EGFR): more potent
inhibition of proliferation of mutated cell lines at lower concentration than for cells expressing wild type EGFR receptor (EGFR mutant cell lines): approximately 35 fold
anti-tumor activity as a single agent (H1975 (EGFRL858R/T790M)): Tumor regressions were observed in all models
tolerability [3]: tolerated by the mice

CN(C)C/C=C/C(=O)Nc1cc2c(Nc3ccc(F)c(Cl)c3)ncnc2cc1O[C@H]1CCOC1 [Compound B, afatinib]
inhibition of T790M-containing cell lines [4]: effectively inhibit

COc1cc2ncnc(Nc3ccc(F)c(Cl)c3)c2cc1NC(=O)/C=C/CN1CCCCC1 [dacomitinib]
inhibition of T790M-containing cell lines [4]: effectively inhibit
